Active and inactive are the calls of the source. The rule behind the calls is not given here.
System: CCRIS mutagenicity, Ames/micronucleus/aberration tests
Assay: CCRIS mutagenicity studies
[1] = Test System: AMES SALMONELLA TYPHIMURIUM, Strain/Indicator: TA100, Metabolic Activation: NONE, Method: PREINCUBATION
[2] = Test System: AMES SALMONELLA TYPHIMURIUM, Strain/Indicator: TA98, Metabolic Activation: NONE, Method: STANDARD PLATE
[3] = Test System: AMES SALMONELLA TYPHIMURIUM, Strain/Indicator: TA98, Metabolic Activation: RAT, LIVER, S-9, AROCLOR 1254, Method: STANDARD PLATE
[4] = Test System: AMES SALMONELLA TYPHIMURIUM, Strain/Indicator: TA100, Metabolic Activation: NONE, Method: STANDARD PLATE
[5] = Test System: AMES SALMONELLA TYPHIMURIUM, Strain/Indicator: TA100, Metabolic Activation: RAT, LIVER, S-9, AROCLOR 1254, Method: STANDARD PLATE
[6] = Test System: AMES SALMONELLA TYPHIMURIUM, Strain/Indicator: TA1537, Metabolic Activation: NONE, Method: STANDARD PLATE

SMILES: CCCCCCc1ccc(O)cc1O
- mutagenic call (End Point: IN VITRO CHROMOSOMAL ABERRATIONS, Test System: CHO CELLS, Metabolic Activation: NONE): inactive; negative
- mutagenic call (End Point: IN VITRO CHROMOSOMAL ABERRATIONS, Test System: CHO CELLS, Metabolic Activation: RAT, LIVER, S-9, AROCLOR 1254): inactive; negative
- mutagenic call (Test System: AMES SALMONELLA TYPHIMURIUM, Strain/Indicator: TA98, Metabolic Activation: HAMSTER, LIVER, S-9, AROCLOR 1254, Method: PREINCUBATION): inactive; negative
- mutagenic call (Test System: AMES SALMONELLA TYPHIMURIUM, Strain/Indicator: TA98, Metabolic Activation: NONE, Method: PREINCUBATION): inactive; negative
- mutagenic call (Test System: AMES SALMONELLA TYPHIMURIUM, Strain/Indicator: TA98, Metabolic Activation: RAT, LIVER, S-9, AROCLOR 1254, Method: PREINCUBATION): inactive; negative
- mutagenic call (Test System: AMES SALMONELLA TYPHIMURIUM, Strain/Indicator: TA100, Metabolic Activation: HAMSTER, LIVER, S-9, AROCLOR 1254, Method: PREINCUBATION): inactive; negative
- mutagenic call [1]: inactive; negative
- mutagenic call (Test System: AMES SALMONELLA TYPHIMURIUM, Strain/Indicator: TA100, Metabolic Activation: RAT, LIVER, S-9, AROCLOR 1254, Method: PREINCUBATION): inactive; negative
- mutagenic call (Test System: AMES SALMONELLA TYPHIMURIUM, Strain/Indicator: TA1535, Metabolic Activation: HAMSTER, LIVER, S-9, AROCLOR 1254, Method: PREINCUBATION): inactive; negative
- mutagenic call (Test System: AMES SALMONELLA TYPHIMURIUM, Strain/Indicator: TA1535, Metabolic Activation: NONE, Method: PREINCUBATION): inactive; negative
- mutagenic call (Test System: AMES SALMONELLA TYPHIMURIUM, Strain/Indicator: TA1535, Metabolic Activation: RAT, LIVER, S-9, AROCLOR 1254, Method: PREINCUBATION): inactive; negative
- mutagenic call (Test System: AMES SALMONELLA TYPHIMURIUM, Strain/Indicator: TA1537, Metabolic Activation: HAMSTER, LIVER, S-9, AROCLOR 1254, Method: PREINCUBATION): inactive; negative
- mutagenic call (Test System: AMES SALMONELLA TYPHIMURIUM, Strain/Indicator: TA1537, Metabolic Activation: NONE, Method: PREINCUBATION): inactive; negative
- mutagenic call (Test System: AMES SALMONELLA TYPHIMURIUM, Strain/Indicator: TA1537, Metabolic Activation: RAT, LIVER, S-9, AROCLOR 1254, Method: PREINCUBATION): inactive; negative
- mutagenic call (Test System: MOUSE LYMPHOMA, Strain/Indicator: L5178Y (TK+/TK-), Metabolic Activation: NONE, Method: SUSPENSION/PLATE): inactive; negative
- mutagenic call (Test System: MOUSE LYMPHOMA, Strain/Indicator: L5178Y (TK+/TK-), Metabolic Activation: RAT, LIVER, S-9, AROCLOR 1254, Method: SUSPENSION/PLATE): active; positive

SMILES: CCOP(=S)(OCC)SCn1c(=O)oc2cc(Cl)ccc21
- mutagenic call (Test System: AMES SALMONELLA TYPHIMURIUM, Strain/Indicator: TA97A, Metabolic Activation: NONE, Method: STANDARD PLATE): inactive; negative
- mutagenic call (Test System: AMES SALMONELLA TYPHIMURIUM, Strain/Indicator: TA97A, Metabolic Activation: RAT, CECAL CELL FREE EXTRACT, Method: STANDARD PLATE): inactive; negative
- mutagenic call (Test System: AMES SALMONELLA TYPHIMURIUM, Strain/Indicator: TA97A, Metabolic Activation: RAT, LIVER, S-9, AROCLOR 1254, Method: STANDARD PLATE): inactive; negative
- mutagenic call [2]: inactive; negative
- mutagenic call (Test System: AMES SALMONELLA TYPHIMURIUM, Strain/Indicator: TA98, Metabolic Activation: RAT, CECAL CELL FREE EXTRACT, Method: STANDARD PLATE): inactive; negative
- mutagenic call [3]: inactive; negative
- mutagenic call [4]: inactive; negative
- mutagenic call (Test System: AMES SALMONELLA TYPHIMURIUM, Strain/Indicator: TA100, Metabolic Activation: RAT, CECAL CELL FREE EXTRACT, Method: STANDARD PLATE): inactive; negative
- mutagenic call [5]: inactive; negative

SMILES: CC(=O)Nc1cc2c(cc1[N+](=O)[O-])[nH]c1ccccc12
- mutagenic call [2]: active; positive
- mutagenic call (Test System: AMES SALMONELLA TYPHIMURIUM, Strain/Indicator: TA98, Metabolic Activation: RAT, LIVER, S-9, PHENOBARBITAL, Method: STANDARD PLATE): active; positive
- mutagenic call [4]: inactive; negative
- mutagenic call (Test System: AMES SALMONELLA TYPHIMURIUM, Strain/Indicator: TA100, Metabolic Activation: RAT, LIVER, S-9, PHENOBARBITAL, Method: STANDARD PLATE): inactive; negative
- mutagenic call [6]: inactive; negative
- mutagenic call (Test System: AMES SALMONELLA TYPHIMURIUM, Strain/Indicator: TA1537, Metabolic Activation: RAT, LIVER, S-9, PHENOBARBITAL, Method: STANDARD PLATE): inactive; negative
- mutagenic call (Test System: AMES SALMONELLA TYPHIMURIUM, Strain/Indicator: TA1538, Metabolic Activation: NONE, Method: STANDARD PLATE): active; positive
- mutagenic call (Test System: AMES SALMONELLA TYPHIMURIUM, Strain/Indicator: TA1538, Metabolic Activation: RAT, LIVER, S-9, PHENOBARBITAL, Method: STANDARD PLATE): active; positive
- mutagenic call (Test System: AMES SALMONELLA TYPHIMURIUM, Strain/Indicator: TA1977, Metabolic Activation: NONE, Method: STANDARD PLATE): inactive; negative
- mutagenic call (Test System: AMES SALMONELLA TYPHIMURIUM, Strain/Indicator: TA1977, Metabolic Activation: RAT, LIVER, S-9, PHENOBARBITAL, Method: STANDARD PLATE): inactive; negative

SMILES: O=C1c2ccccc2-c2ccc3ccccc3c21
- mutagenic call [2]: inactive; negative
- mutagenic call [3]: inactive; negative
- mutagenic call [4]: inactive; negative
- mutagenic call [5]: inactive; negative

SMILES: CCN(N=O)C(=O)Nc1ccccc1
- mutagenic call (End Point: IN VITRO CHROMOSOMAL ABERRATIONS, Test System: CHINESE HAMSTER V79-E CELLS, Metabolic Activation: NONE): active; positive (structural changes)

SMILES: Cc1cc(=O)oc2cc3c(cc12)C1(C)OOC1(C)O3 (centres undefined)
- mutagenic call [1]: active; positive

SMILES: CC(=O)N(O)c1ccc(Oc2ccc(Cl)cc2)cc1
- mutagenic call (Test System: AMES SALMONELLA TYPHIMURIUM, Strain/Indicator: TA100, Metabolic Activation: GUINEA PIG, LIVER, MICROSOMAL FRACTION, PCB): active; positive
- mutagenic call (Test System: AMES SALMONELLA TYPHIMURIUM, Strain/Indicator: TA100, Metabolic Activation: GUINEA PIG, LIVER, S-9, PCB): active; positive
- mutagenic call (Test System: AMES SALMONELLA TYPHIMURIUM, Strain/Indicator: TA100, Metabolic Activation: GUINEA PIG, LIVER, S-105, PCB): active; positive
- mutagenic call [4]: inactive; negative
- mutagenic call (Test System: AMES SALMONELLA TYPHIMURIUM, Strain/Indicator: TA100, Metabolic Activation: RAT, LIVER, S-9, KANECLOR 500, Method: STANDARD PLATE): active; positive

SMILES: CN(CC(=O)NN)c1ccc2ccccc2c1
- mutagenic call [2]: inactive; negative
- mutagenic call [3]: inactive; negative
- mutagenic call [4]: inactive; negative
- mutagenic call [5]: inactive; negative
- mutagenic call [6]: inactive; negative
- mutagenic call (Test System: AMES SALMONELLA TYPHIMURIUM, Strain/Indicator: TA1537, Metabolic Activation: RAT, LIVER, S-9, AROCLOR 1254, Method: STANDARD PLATE): inactive; negative

SMILES: [CH3][Sn]([CH3])([CH3])[CH3]
- mutagenic call (Test System: AMES SALMONELLA TYPHIMURIUM, Strain/Indicator: TA98, Metabolic Activation: NONE, Method: SUSPENSION/PLATE): inactive; negative
- mutagenic call (Test System: AMES SALMONELLA TYPHIMURIUM, Strain/Indicator: TA100, Metabolic Activation: NONE, Method: SUSPENSION/PLATE): inactive; negative
